The values below come from ChEMBL document CHEMBL1155631, “Cembrane diterpenes from the southern African soft coral Cladiella kashmani” (J Nat Prod, 2000).

A word on the LC50: it is the concentration lethal to half of the exposed cells or organisms.

For this series, the system named is Artemia salina. The series can be described thus: Toxicity against Artemia salina. Type of series: organism-based. To be noted: in vivo.

In the case of `CC(=O)O[C@@H]1/C(C(C)C)=C\C=C(/C)CC/C=C(\C)CC[C@@H]2O[C@]2(C)[C@H]1O` [FLACCIDOXIDE], the LC50 is 180 ppm.
The value for `CC(=O)O[C@H]1/C(C(C)C)=C\C=C(/C)CC/C=C(\C)CC[C@@H]2O[C@]2(C)[C@H]1C(C)=O` was 110 ppm.
In turn, `C/C1=C\C=C(\C(C)C)[C@@H](O)C[C@]2(C)O[C@H]2CC/C(C)=C/CC1` returned an LC50 of 50 ppm.
